Experimental data reported in patent US20210300943A1, “OGA INHIBITOR COMPOUNDS” (Janssen Pharmaceutica NV, priority 2018, published 2021).

Target: T1, OGA (Mus musculus, UniProt Q9EQQ9)
T1 construct: from tissue; host or cells: mouse brain (right hemisphere sagittal sections, forebrain area)
T1 sequence (Q9EQQ9 1-916): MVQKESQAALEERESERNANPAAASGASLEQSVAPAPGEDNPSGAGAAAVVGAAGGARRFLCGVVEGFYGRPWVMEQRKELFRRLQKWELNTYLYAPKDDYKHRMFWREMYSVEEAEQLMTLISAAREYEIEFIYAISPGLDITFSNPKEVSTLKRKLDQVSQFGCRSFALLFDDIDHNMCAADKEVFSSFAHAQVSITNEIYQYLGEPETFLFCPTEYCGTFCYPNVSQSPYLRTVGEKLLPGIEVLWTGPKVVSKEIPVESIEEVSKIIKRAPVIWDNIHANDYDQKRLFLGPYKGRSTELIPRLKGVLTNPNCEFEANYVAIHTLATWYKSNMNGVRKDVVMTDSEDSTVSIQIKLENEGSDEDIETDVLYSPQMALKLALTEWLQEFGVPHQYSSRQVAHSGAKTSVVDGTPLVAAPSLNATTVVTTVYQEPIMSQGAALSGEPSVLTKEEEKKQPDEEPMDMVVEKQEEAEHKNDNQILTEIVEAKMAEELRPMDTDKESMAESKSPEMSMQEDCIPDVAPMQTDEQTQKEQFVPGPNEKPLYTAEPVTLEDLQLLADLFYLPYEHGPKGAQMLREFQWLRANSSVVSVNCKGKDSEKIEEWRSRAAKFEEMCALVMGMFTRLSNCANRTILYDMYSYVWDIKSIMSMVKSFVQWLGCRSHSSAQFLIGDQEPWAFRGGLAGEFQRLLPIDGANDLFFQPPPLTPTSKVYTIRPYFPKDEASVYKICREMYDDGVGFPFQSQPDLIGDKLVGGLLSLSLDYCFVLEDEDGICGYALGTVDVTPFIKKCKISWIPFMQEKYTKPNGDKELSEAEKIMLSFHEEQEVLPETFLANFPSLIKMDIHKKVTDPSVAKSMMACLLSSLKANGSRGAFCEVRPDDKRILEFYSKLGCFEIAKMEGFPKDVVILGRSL
Test: Ex vivo OGA occupancy assay using [3H]-ligand
Assay type: in vivo
Settings: po, male NMRI or C57Bl6j mice, p.o., 24 h after administration, forebrain area of brain sections, 3 nM [3H]-ligand, normalised to vehicle, read-out: Occupancy (% +/- sd)
Procedure: Ex Vivo Oga Occupancy Assay Using [^3H]-Ligand
Drug Treatment and Tissue Preparation
Male NMRI or C57Bl6j mice were treated by oral (p.o.) administration of vehicle or compound. Animals were sacrificed 24 hours after administration. Brains were immediately removed from the skull, hemispheres were separated and the right hemisphere, for ex vivo OGA occupancy assay, was rapidly frozen in dry-ice cooled 2-methylbutane (−40° C.). […] sagittal sections were cut using a Leica CM 3050 cryostat-microtome (Leica, Belgium), thaw-mounted on microscope slides (SuperFrost Plus Slides, Thermo Fisher Scientific) and stored at −20° C. until use. After thawing, sections were dried under a cold stream of air. The sections were not washed prior to incubation. The 10 minutes incubation with 3 nM [^3H]-ligand was rigorously controlled. All brain sections (from compound-treated and vehicle-treated animals) were incubated in parallel. […]
Quantitative autoradiography and data analysis Radioactivity in the forebrain area of brain slices was measured using a β-imager with M3 vision analysis software (Biospace Lab, Paris). Specific binding was calculated as the difference between total binding and non-specific binding measured in Thiamet-G (10 μM) treated sections. […]

SMILES: Cc1cc(OC[C@H]2CCCN(C(C)c3nc4c(cc3F)OCCO4)C2)cc(C)n1 (single isomer, unassigned) [Product 155]
- receptor occupancy at 25 mg/kg: 92.7%

SMILES: Cc1cc([C@H]2CCCN(C(C)c3cnc4c(c3)OCCN4)C2)cc(C)n1 (single isomer, unassigned) [Product 135]
- receptor occupancy at 25 mg/kg: 20.7%
